One data set in a line: Cytotoxicity assay (MTT). Type of data set: cell-based. To be noted: human. On the procedure:
(§1) The T-lymphocyte cell line (Suptl) was cultured in an RPMI 1640 medium (GIBICO). The cultures were supplemented with 10% Fetal Bovine Serum (SFB; HyClone, Logan, Utah, USA), 100 U/mL of penicillin and […] of streptomycin, and incubated at 37° C., in an atmosphere of 5% CO2. Virus stocks were prepared using the methodology described by Souza and Denizot (SOUZA, T. M. L; RODRIGUES, D. Q.; […], V. F.; MARQUES, I. P.; DE SOUZA, M. C. B. V.; […], I. C. P. P.; BOU-HABIB, D. C; FONTES, C. F. L. Characterization of HIV-1 enzyme reverse transcriptase inhibition by the compound 6-chloro-1.4-dihydro-4-oxo-1-(β-D-ribofuranosyl) quinoline-3-carboxylic acid through kinetic and in silico studies. Current HIV Research, v. 7, No 3, page 327-335, 2009. DENIZOT, F.; LANG, R. Rapid colorimetric assay for cell growth and survival. Modifications to the tetrazolium dye procedure giving improved sensitivity and reliability. The Journal of Immunological Methods, v. 89, No 2, page 271-277, 1986).
(§2) . They were then run through an MTT assay (3-(4,5-dimethylazol-2-yl)-2.5-diphenyl tetrazolium bromide) in order to analyze cell induction infeasibility. MTT is a colorimetric method that measures mitochondrial dehydrogenase activity based on the ability of live cells to reduce 3-(4,5-methylazol-2-yl)-2.5-diphenyl tetrazolium bromide salt in the product. A […] solution of 3-(4,5-dimethylthiazol-2-yl)-2.5-diphenyl tetrazolium bromide (1 mg/ml) (MTT, Sigma) was thus added to the cells, kept in Dulbecco's Modified Eagle's medium (DMEM) without serum. The MTT was removed after three hours and, after adding […] of isopropanol acid (0.04N HCl in isopropanol), the optical density (OD) was determined using a wavelength range of 570 to 690 nm, according to KUO et al (KUO, Y. C; CHEN, C. C; TSA, W. J.; HO, Y. H. Regulation of type 1 herpes simplex virus replication in vero cells by Psychotriaserpens: relationship to gene expression, DNA replication, and protein synthesis. Antiviral Research, v. 51, No 2, pages 95 to 109, 2001). The dye coloring has different optical densities, depending on mitochondrial metabolism after treating cells with different concentrations of the new derivatives or the absence thereof. The 50% cytotoxic concentration (CC50) was calculated through linear regression analysis from the dose-response curve obtained from experimental data.

For data set [1], the target named is T1, recombinant HIV-1 reverse transcriptase (RTHXB2) (Human immunodeficiency virus type 1 group M subtype B, UniProt P04585).
T1 construct: The enzyme is derived from a polyprotein encoded by the virus, processed by the viral protease
Nature of the data set: Reverse transcriptase inhibition activity (RDDP, [3H]dTTP incorporation). In kind it is biochemical. To be noted: for IS: CC50 / CI50. On the procedure:
Reverse Transcriptase Inhibition Activity
The RDDP activity was determined in 50 mM Tris HCl (pH 7.8), 6 mM MgCl2, 1 mM dithiothreitol, 50 mM KCl, 5 μM dTTP, […] poly (rA) oligo (dT) template primer (Pharmacia, Piscataway, N.J., USA) and 3 U of enzyme (one unit is the enzyme concentration incorporating dTTP […] per minute per mg of enzyme at 37° C. under standard conditions). The reaction isotope dilutions were prepared at 2 μCi of [3H] dTTP (49 Ci/mmol)/2,7μ dTTP. The reaction was initiated at 37° C., incubated for 30 minutes and halted with 0.5M EDTA. The precipitate was collected on Whatman 81 filter paper and washed with 0.1 M sodium phosphate. The incorporated nucleotides were measured by liquid scintillation. The 50% inhibitory concentration (Ciso) was determined by linear regression analysis of the dose-response curve obtained from experimental data. The polymerization reaction was conducted in the presence and absence of test substances, as well as the presence and absence of standards.
All tests were conducted on three separate occasions. At least three independent experiments were performed and triplicates were run for each concentration.

Data set [2] relates to Suptl cells (T-lymphocyte cell line). In words: Cytotoxicity assay (MTT). The conditions noted are these: 50% cytotoxic concentration, 72 hours, MTT; read-out: CC50. Type of data set: cell-based. How it is done:
as §1, §2

[3] abbreviates: 50% cytotoxic concentration, 72 hours, MTT, read-out: CC50.
The mark [4] stands for this setting: 50% inhibitory concentration, mean of three independent experiments, read-out: CI50 (the source's name).
The mark [5] stands for this setting: Suptl cells (T-lymphocyte cell line), 50% cytotoxic concentration, 72 hours, MTT, read-out: CC50.

Results on 21 compounds are retold here after patent US10538515B2, “Isatin-derived compounds, use of the compounds for the treatment of AIDS and method of treatment using these compounds” (FUNDAÇÄO OSWALDO CRUZ, priority 2016, dated 2020).

Where two headings read alike, the source gives them in different places.

`CCOP(=O)(Cn1cc(CN2C(=O)C(=O)c3cc(Cl)ccc32)nn1)OCC` [Ih, diethyl ((4-((5-chloro-2.3-dioxoindolin-1-yl)methyl)-1H-1,2,3-triazole-1-yl)methyl) phosphonate]: the CC50 (usually the concentration that lowers cell viability or growth by half) at 72 h in “Cytotoxicity assay (MTT)” (setting [3]) is > 100 µM. For the same compound, the IC50 in data set [1] was 1.2 µM.
In the case of `CCOP(=O)(Cn1cc(CN2C(=O)C(O)(C#CC3CC3)c3cc(C)ccc32)nn1)OCC` (centres unmarked) [IIe, diethyl ((4-((3-(cyclopropylethanol)-3-hydroxy-5-methyl-2-oxoindolin-1-yl)methyl-1,2,3-triazole-1-yl)methyl) phosphonate], the CC50 at 72 h in “Cytotoxicity assay (MTT)” (setting [3]) was > 100 µM. Besides, in data set [1], the IC50 came to 1.8 µM.
For the compound `CCOP(=O)(Cn1cc(CN2C(=O)C(O)(C#CC3CC3)c3cc(Cl)ccc32)nn1)OCC` (centres unmarked) [IIf, diethyl ((4-((5-chloro-3-(cyclopropylethanol)-3-hydroxy-2-oxoindolin-1-yl)methyl)-1H-1,2,3-triazole-1-yl)methyl) phosphonate], in data set [2], the CC50 was > 100 µM. For the same compound, the IC50 in data set [1] (setting [4]) came out at 3.2 µM.
In the case of `O=C1Nc2ccc(Cl)cc2[C@@](C#CC2CC2)(C(F)(F)F)O1` [Efavirenz, reference compound], the CC50 at 72 h in the data set “Cytotoxicity assay (MTT)” (setting [5]) stood at 88 µM.
In turn, `Cc1cn([C@H]2C[C@H](N=[N+]=[N-])[C@@H](CO)O2)c(=O)[nH]c1=O` [Zidovudine, reference compound] came in with a CC50 at 72 h in the data set “Cytotoxicity assay (MTT)” of 126 µM. In addition, in data set [1], the IC50 came out at 0.01 µM and the IS is 12,600.
As to `CCOP(=O)(Cn1cc(CN2C(=O)C(=O)c3ccccc32)nn1)OCC` [If, diethyl ((4-((2.3-dioxoindolin-1-yl)methyl)-1H-1,2,3-triazole-1-yl)methyl) phosphonate], the CC50 at 72 h in “Cytotoxicity assay (MTT)” (setting [3]) was determined as 2320 µM. In data set [1], the IC50 is 1.3 µM and the IS is 1,782.
With `Cc1ccc2c(c1)C(F)(F)C(=O)N2Cc1cn(C2CC(n3cc(C)c(=O)[nH]c3=O)OC2CO)nn1` (centres unmarked) [IIIb, 1-(4-(4-((3,3-difluor-5-methyl-2-oxoindolin-1-yl)methyl)-1H-1,2,3-triazole-1-yl)-5-(hydroxymethyl)tetrahydrofuran-2-yl)-5-methylpyrimidine-2.4(1H,3H)-dione], the CC50 in data set [2] is > 100 µM. Further, the IC50 in data set [1] (setting [4]) was found to be 3.2 µM.
In the case of `Cc1ccc2c(c1)C(O)(C#CC1CC1)C(=O)N2Cc1cn(C2CC(n3cc(C)c(=O)[nH]c3=O)OC2CO)nn1` (centres unmarked) [IIb, 1-(4-(4-((3-(cyclopropylethanol)-3-hydroxy-5-methyl-2-oxoindolin-1-yl)methyl)-1H-1,2,3-triazole-1-yl)-5-(hydroxymethyl)tetrahydrofuran-2-yl)-5-methylpyrimidine-2.4(1H,3H)-dione], in the data set “Cytotoxicity assay (MTT)” (setting [5]), the CC50 at 72 h was > 100 µM. Also, in data set [1], the IC50 was 3.3 µM.
On to `Cc1cn(C2CC(n3cc(CN4C(=O)C(F)(F)c5cc(Cl)ccc54)nn3)C(CO)O2)c(=O)[nH]c1=O` (centres unmarked) [IIIc, 1-(4-(4-((5-chloro-3.3-difluor-2-oxoindolin-1-yl)methyl)-1H-1,2,3-triazole-1-yl)-5-(hydroxymethyl)tetrahydrofuran-2-yl)-5-methylpyrimidine-2.4(1H,3H)-dione], for which, in data set [2], the CC50 is 1050 µM. Besides, in data set [1], the “RT enzyme inhibition activity compared with benchmarks (in words)” value was “more active than the nevirapine and tenofovir benchmarks”; the IS is 1318. Besides, the IC50 in data set [1] (setting [4]) was 0.8 µM.
As to `Cc1cn(C2CC(n3cc(CN4C(=O)C(O)(C#CC5CC5)c5cc(Cl)ccc54)nn3)C(CO)O2)c(=O)[nH]c1=O` (centres unmarked) [IIc], the CC50 at 72 h in “Cytotoxicity assay (MTT)” (setting [5]) is > 100 µM. Further, in data set [1], the IC50 worked out at 3.1 µM.
With `CCOP(=O)(Cn1cc(CN2C(=O)C(F)(F)c3cc(Cl)ccc32)nn1)OCC` [IIIf, diethyl ((4-((5-chloro-3.3-difluor-2-oxoindolin-1-yl)methyl)-1H-1,2,3-triazole-1-yl)methyl) phosphonate], the CC50 in data set [2] worked out at 1900 µM. In data set [1], the “RT enzyme inhibition activity compared with benchmarks (in words)” value was “more active than the nevirapine and tenofovir benchmarks”; the IS amounted to 2106. The IC50 in data set [1] (setting [4]) was determined as 0.9 µM.
Consider `Cc1cn(C2CC(n3cc(CN4C(=O)C(O)(C#CC5CC5)c5ccccc54)nn3)C(CO)O2)c(=O)[nH]c1=O` (centres unmarked) [IIa], for which, in the data set “Cytotoxicity assay (MTT)” (setting [5]), the CC50 at 72 h was > 100 µM. Moreover, in data set [1], the IC50 stood at 2.1 µM.
As to `CCOP(=O)(Cn1cc(CN2C(=O)C(F)(F)c3cc(C)ccc32)nn1)OCC` [IIIe, diethyl ((4-((3,3-difluor-5-methyl-2-oxoindolin-1-yl)methyl)-1H-1,2,3-triazole-1-yl)methyl) phosphonate], in data set [2], the CC50 was > 100 µM. Also, the IC50 in data set [1] (setting [4]) turned out to be 2.2 µM.
Consider `CCOP(=O)(Cn1cc(CN2C(=O)C(=O)c3cc(C)ccc32)nn1)OCC` [Ig, diethyl ((4-((5-methyl-2.3-dioxoindolin-1-yl)methyl)-1H-1,2,3-triazole-1-yl)methyl) phosphonate], for which the CC50 at 72 h in “Cytotoxicity assay (MTT)” (setting [3]) was found to be 2060 µM. Further, in data set [1], the IC50 stood at 0.7 µM; the “RT enzyme inhibition activity compared with benchmarks (in words)” value is “more active than the nevirapine and tenofovir benchmarks”; the IS was 2,940.
For `Cc1ccnc2c1NC(=O)c1cccnc1N2C1CC1` [Nevirapine, reference compound], in the data set “Cytotoxicity assay (MTT)” (setting [5]), the CC50 at 72 h is 895 µM. Further, in data set [1], the IS came out at 746.
On to `Cc1cn(C2CC(n3cc(CN4C(=O)C(=O)c5cc(Cl)ccc54)nn3)C(CO)O2)c(=O)[nH]c1=O` (centres unmarked) [Ic, 5-chloro-1-((1-(2-(hydroxymethyl)-5-(5-methyl-2.4-dioxo-3.4-dihydropyrimidine-1(2H)-yl)tetrahydrofuran-3-yl)-1H-1,2,3-triazole-4-yl)methyl)indolin-2.3-dione], for which the CC50 at 72 h in “Cytotoxicity assay (MTT)” (setting [5]) is > 100 µM. Also, in data set [1], the IC50 is 1.9 µM.
As for `Cc1cn(C2CC(n3cc(CN4C(=O)C(=O)c5ccccc54)nn3)C(CO)O2)c(=O)[nH]c1=O` (centres unmarked) [Ia, 1-((1-(2-(hydroxymethyl)-5-(5-methyl-2.4-dioxo-3.4-dihydropyrimidine-1(2H)-yl)tetrahydrofuran-3-yl)-1H-1,2,3-triazole-4-yl)methyl)indolin-2.3-dione], the CC50 at 72 h in the data set “Cytotoxicity assay (MTT)” (setting [5]) is > 100 µM. For the same compound, in data set [1], the IC50 turned out to be 2.5 µM.
As for `CCOP(=O)(Cn1cc(CN2C(=O)C(O)(C#CC3CC3)c3ccccc32)nn1)OCC` (centres unmarked) [IId], the CC50 at 72 h in the data set “Cytotoxicity assay (MTT)” (setting [3]) was > 100 µM. In data set [1], the IC50 was 3.5 µM.
As for `Cc1ccc2c(c1)C(=O)C(=O)N2Cc1cn(-c2ccc(S(=O)(=O)N(CC(C)C)CC(O)C(Cc3ccccc3)NC(=O)OC3CCOC3)cc2)nn1` [Ie, tetrahydrofuran-3-yl ((2S,3R)-3-hydroxy-4-(N-isobutyl-4-(4-((5-methyl-2.3-dioxoindolin-1-yl)methyl)-1H-1,2,3-triazole-1-yl)phenylsulfonamide)-1=phenylbutan-2-yl)carbamate], the half-maximal cytotoxic concentration (CC50) at 72 h in the data set “Cytotoxicity assay (MTT)” (setting [5]) is > 100 µM. Besides, in data set [1], the IC50 amounted to 0.9 µM; the “RT enzyme inhibition activity compared with benchmarks (in words)” value was “more active than the nevirapine and tenofovir benchmarks”.
Take `CC(C)CN(CC(O)C(Cc1ccccc1)NC(=O)OC1CCOC1)S(=O)(=O)c1ccc(-n2cc(CN3C(=O)C(=O)c4ccccc43)nn2)cc1` [Id, tetrahydrofuran-3-yl ((2S)3R)-4-(4-(4-((2.3-dioxoindolin-1-yl)methyl)-1H-1,2,3-triazole-1-yl)-N-isobutylphenylsulfonamide)-3-hydroxy-1-phenylbutan-2-yl) carbamate]: the cytotoxic concentration (CC50) at 72 h in “Cytotoxicity assay (MTT)” (setting [5]) was > 100 µM. Besides, in data set [1], the IC50 came to 1.5 µM.
On the same counts, the results for `Cc1ccc2c(c1)C(=O)C(=O)N2Cc1cn(C2CC(n3cc(C)c(=O)[nH]c3=O)OC2CO)nn1` (centres unmarked) [Ib] are > 100 µM and 1.9 µM.
